Experimental findings from patent US20170291890A1 (Epizyme, Inc., priority 2014, published 2017) are described below.

The IC50 is the concentration at which inhibition is half-maximal.

This test addresses T1, KDM4C (Homo sapiens, UniProt Q9H3R0).
T1 construct: N-terminal GST-tagged KDM4C^2-372 was purchased from BPS Biosciences; GST (N); purchased BPS Biosciences
T1 sequence (Q9H3R0 2-372): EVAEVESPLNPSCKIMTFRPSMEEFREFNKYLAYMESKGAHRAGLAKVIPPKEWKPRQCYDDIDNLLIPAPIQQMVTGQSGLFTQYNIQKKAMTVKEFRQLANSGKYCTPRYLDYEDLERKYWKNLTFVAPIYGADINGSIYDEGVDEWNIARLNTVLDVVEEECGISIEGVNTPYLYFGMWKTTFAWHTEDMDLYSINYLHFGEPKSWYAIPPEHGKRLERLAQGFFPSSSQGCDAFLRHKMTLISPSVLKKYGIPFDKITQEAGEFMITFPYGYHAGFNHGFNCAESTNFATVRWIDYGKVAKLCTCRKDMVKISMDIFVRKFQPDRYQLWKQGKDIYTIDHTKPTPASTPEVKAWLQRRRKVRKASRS
The test can be described thus: KDM4C Assay (SAMDI mass spectrometry demethylase assay). Type of test: biochemical. As to conditions: N-terminal GST-tagged KDM4C 2-372; class symbols; read-out: 4C IC50. The procedure:
N-terminal GST-tagged KDM4C^2-372 was purchased from BPS Biosciences. Peptides were synthesized by BioPeptide and all other reagents were purchased from Sigma-Aldrich at the highest level of purity possible. Assays were performed in a 50 μL volume in 384-well V-bottom polypropylene microplates (Greiner) at 25° C. Optimized 1× assay buffer was 50 mM HEPES (pH=8.0), 100 μM sodium ascorbate, 20 mM NaCl, 10 μM ammonium iron sulfate, 1 mM tris(2-carboxyethyl)phosphine (TCEP), 0.002% Tween-20, and 0.005% BSG. For compound screening, 35 μL of KDM4C^2-372 (final concentration, f.c.=5 nM) was added using a Multidrop Combi and preincubated with 1 μL of test compound (f.c.=10 μM) for 30 minutes and subsequently 15 μL of peptide with the following sequence NH2-ARTKQTAR(Kme3)STGGKAPRKQLA(K-Ahx-Biotin)-amide (f.c.=500 nM) and 2-oxoglutarate (f.c.=15 μM) was added by Multidrop Combi to begin the reaction. Reactions proceeded for 150 minutes and were stopped by the addition of 5 μL of formic acid (f.c.=0.5%) using a Multidrop Combi and then analyzed by SAMDI Tech Inc.
SAMDI Tech analyzed all reactions using self-assembled monoloayer desorption/ionization technology as previously described (Gerard-Levin Z A, Scholle M D, Eisenberg A H, et al.: High-throughput screening of small molecule libraries using SAMDI mass spectrometry. ACS Comb Sci 2011; 13:347-350). Briefly, a 2 μL sample of the stopped demethylase reactions were transferred to a SAMDI array coated with 384 biotin-neutravidin spots using a 384-channel pipet station. The SAMDI arrays were incubated for 1 h in a humidified chamber, followed by washing of the surface with deionized ultra-filtered water (DIUF) and drying under nitrogen. A matrix of 30 mg/ml 2′,4′,6′-Trihydroxyacetophenone monohydrate (THAP) in acetone was applied using a TPP Mosquito 1.2 μL tip by dispensing 50 nL on each of the 384 spots on the array. SAMDI-MS was run using acquisition method ReflectorPositiveUTX. The % conversion of substrate to product was calculated using the AUC of the substrate and product peptide peaks.
An IC50 value was determined by contacting various concentrations of a test compound with one of the KDM4A, KDM4C or KDMSC enzyme constructs and plotting a dose-response curve which associates the amount of inhibition of the enzyme relative to the concentration of the test compound. From the curve, the IC50 value (which represents the concentration of the test compound necessary to inhibit maximal enzymatic activity by 50%) was determined. Additionally, the slope of the linear range of the plotted curve, which indicates the speed with which the curve rises between the minimum and maximum, was calculated.

In the case of `Cc1nn(C2CCCNCC2)cc1Nc1cnccc1C(=O)O` (single isomer, unassigned) [Compound 114], the IC50 is 100 to 1000 nM.
To `Cc1nn(C2CCCNCC2)cc1Nc1cnccc1C(=O)O` (single isomer, unassigned) [Compound 116] belongs 100 to 1000 nM.
For `Cn1ncc(-c2ccccc2)c1Nc1cnccc1C(=O)O` [Compound 1] the value was 100 to 1000 nM; for `Cc1cn(-c2ccccc2)c(Nc2cnccc2C(=O)O)n1` [Compound 2], 100 to 1000 nM.
To `Cn1cc(-c2ccccc2)c(Nc2cnccc2C(=O)O)n1` [Compound 3] belongs 1000 to 10000 nM; to `Cn1nc(-c2ccccc2)cc1Nc1cnccc1C(=O)O` [Compound 6], 1000 to 10000 nM.
With `Cn1cc(-c2ccc(F)cc2)c(Nc2cnccc2C(=O)O)n1` [Compound 7, 3-((4-(4-Fluorophenyl)-1-methyl-1H-pyrazol-3-yl)amino) isonicotinic acid], the IC50 is 100 to 1000 nM.
Turning to `Cn1ncc(-c2ccc(F)cc2)c1Nc1cnccc1C(=O)O` [Compound 8, 3-((4-(4-fluorophenyl)-1-methyl-1H-pyrazol-5-yl)amino) isonicotinic acid], the IC50 fell in the range of 1000 to 10000 nM.
`Cn1cc(-c2cccc(F)c2)c(Nc2cnccc2C(=O)O)n1` [Compound 9, 3-((4-(3-Fluorophenyl)-1-methyl-1H-pyrazol-3-yl)amino) isonicotinic acid]: the IC50 lay in the range of 100 to 1000 nM.
To `Cn1ncc(-c2cccc(F)c2)c1Nc1cnccc1C(=O)O` [Compound 10, 3-((4-(3-Fluorophenyl)-1-methyl-1H-pyrazol-5-yl)amino) isonicotinic acid] belongs 1000 to 10000 nM; to `Cn1cc(-c2ccccc2F)c(Nc2cnccc2C(=O)O)n1` [Compound 11, 3-((4-(2-Fluorophenyl)-1-methyl-1H-pyrazol-3-yl)amino) isonicotinic acid], 100 to 1000 nM.
To `Cn1ncc(-c2ccccc2F)c1Nc1cnccc1C(=O)O` [Compound 12, 3-((4-(2-fluorophenyl)-1-methyl-1H-pyrazol-5-yl)amino) isonicotinic acid] belongs 1 to 100 nM; to `Cn1cc(Nc2cnccc2C(=O)O)c(-c2ccccc2)n1` [Compound 13, 3-((1-methyl-3-phenyl-1H-pyrazol-4-yl)amino) isonicotinic acid], 100 to 1000 nM; to `O=C(O)c1ccncc1Nc1nn(CCN2CCC(F)(F)CC2)cc1-c1ccccc1` [Compound 14, 3-((1-(2-(4,4-Difluoropiperidin-1-yl)ethyl)-4-phenyl-1H-pyrazol-3-yl)amino)isonicotinic acid], 100 to 1000 nM.
On to `O=C(O)c1ccncc1Nc1c(-c2ccccc2)cnn1CCN1CCC(F)(F)CC1` [Compound 15, 3-((1-(2-(4,4-difluoropiperidin-1-yl)ethyl)-4-phenyl-1H-pyrazol-5-yl)amino)isonicotinic acid], for which the IC50 was 10000 to 100000 nM.
For `Cc1n[nH]c(C)c1Nc1cnccc1C(=O)O` [Compound 16, 3-((3,5-Dimethyl-1H-pyrazol-4-yl)amino)isonicotinic acid] the value was 10000 to 100000 nM; for `O=C(O)c1ccncc1Nc1cn(CCN2CCC(F)(F)CC2)nc1-c1ccccc1` [Compound 17, 3-((1-(2-(4,4-Difluoropiperidin-1-yl)ethyl)-3-phenyl-1H-pyrazol-4-yl)amino)isonicotinic acid], 1000 to 10000 nM.
As for `O=C(O)c1ccncc1Nc1cnn(CCN2CCC(F)(F)CC2)c1-c1ccccc1` [Compound 18, 3-((1-(2-(4,4-difluoropiperidin-1-yl)ethyl)-5-phenyl-1H-pyrazol-4-yl)amino)isonicotinic acid], the IC50 lay in the range of 100 to 1000 nM.
Take `Cc1nn(-c2ccccc2)cc1Nc1cnccc1C(=O)O` [Compound 19, 3-((3-Methyl-1-phenyl-1H-pyrazol-4-yl)amino)isonicotinic acid]: the IC50 was 100 to 1000 nM.
As for `Cc1c(Nc2cnccc2C(=O)O)cnn1-c1ccccc1` [Compound 20, 3-((5-methyl-1-phenyl-1H-pyrazol-4-yl)amino)isonicotinic acid], the IC50 fell in the range of 1 to 100 nM.
With `O=C(O)c1ccncc1Nc1cc(-c2ccccc2)nn1-c1ccccc1` [Compound 21, 3-((1,3-Diphenyl-1H-pyrazol-5-yl)amino)isonicotinic acid], the IC50 fell in the range of 100 to 1000 nM.
To `CC(C)n1nc(-c2ccccc2)cc1Nc1cnccc1C(=O)O` [Compound 22, 3-((1-Isopropyl-3-phenyl-1H-pyrazol-5-yl)amino)isonicotinic acid] belongs 100 to 1000 nM; to `O=C(O)c1ccncc1Nc1cc(-c2ccccc2)nn1C1CCOCC1` [Compound 23, 3-((3-Phenyl-1-(tetrahydro-2H-pyran-4-yl)-1H-pyrazol-5-yl)amino)isonicotinic acid], 100 to 1000 nM; to `Cn1nc(-c2ccc(Cl)cc2)cc1Nc1cnccc1C(=O)O` [Compound 24, 3-((3-(4-Chlorophenyl)-1-methyl-1H-pyrazol-5-yl)amino) isonicotinic acid], 1000 to 10000 nM.
In the case of `Cn1nc(-c2cccc(Cl)c2)cc1Nc1cnccc1C(=O)O` [Compound 25, 3-((3-(3-chlorophenyl)-1-methyl-1H-pyrazol-5-yl)amino) isonicotinic acid], the IC50 fell in the range of 1000 to 10000 nM.
With `NCCn1nc(-c2ccccc2)cc1Nc1cnccc1C(=O)O` [Compound 26], the IC50 lay within 1000 to 10000 nM.
For `COCCn1nc(-c2ccccc2)cc1Nc1cnccc1C(=O)O` [Compound 27, 3-((1-(2-Methoxyethyl)-3-phenyl-1H-pyrazol-5-yl)amino) isonicotinic acid] the value was 100 to 1000 nM; for `Cc1c(Nc2cnccc2C(=O)O)cnn1Cc1ccccc1` [Compound 33, 3-((1-benzyl-5-methyl-1H-pyrazol-4-yl)amino)isonicotinic acid], 1 to 100 nM; for `CN1CCN(CCn2cc(-c3ccccc3)c(Nc3cnccc3C(=O)O)n2)CC1` [Compound 34, 3-((1-(2-(4-Methylpiperazin-1-yl)ethyl)-4-phenyl-1H-pyrazol-3-yl)amino)isonicotinic acid], 10000 to 100000 nM.
For `CN1CCN(CCn2ncc(-c3ccccc3)c2Nc2cnccc2C(=O)O)CC1` [Compound 35, 3-((1-(2-(4-methylpiperazin-1-yl)ethyl)-4-phenyl-1H-pyrazol-5-yl)amino)isonicotinic acid] the value was 100 to 1000 nM; for `CCn1nc(-c2ccccc2)cc1Nc1cnccc1C(=O)O` [Compound 36, 3-((1-Ethyl-3-phenyl-1H-pyrazol-5-yl)amino)isonicotinic acid], 100 to 1000 nM; for `N[C@H]1CC[C@@H](n2nc(-c3ccccc3)cc2Nc2cnccc2C(=O)O)CC1` [Compound 37, 3-((1-((cis)-4-aminocyclohexyl)-3-phenyl-1H-pyrazol-5-yl)amino)isonicotinic acid], 100 to 1000 nM.
Turning to `N[C@H]1CC[C@H](n2nc(-c3ccccc3)cc2Nc2cnccc2C(=O)O)CC1` [Compound 38, 3-((1-((trans)-4-aminocyclohexyl)-3-phenyl-1H-pyrazol-5-yl)amino)isonicotinic acid], the IC50 lay in the range of 10000 to 100000 nM.
To `O=C(O)c1ccncc1Nc1cc(-c2ccccc2)nn1[C@H]1CC[C@H](O)CC1` [Compound 39, 3-((1-((trans)-4-hydroxycyclohexyl)-3-phenyl-1H-pyrazol-5-yl)amino)isonicotinic acid] belongs 100 to 1000 nM; to `O=C(O)c1ccncc1Nc1cc(-c2ccccc2)nn1[C@H]1CC[C@@H](O)CC1` [Compound 40, 3-((1-((cis)-4-Hydroxycyclohexyl)-3-phenyl-1H-pyrazol-5-yl)amino)isonicotinic acid], 1000 to 10000 nM; to `O=C(O)c1ccncc1Nc1cn(-c2ccccc2)nc1-c1ccccc1` [Compound 41, 3-((1,3-Diphenyl-1H-pyrazol-4-yl)amino)isonicotinic acid], 100 to 1000 nM.
